Holding throughout (assay type): cell-based, human
Assay [1] deals with micro-engineered bone marrow (MEBM) model. Nature of the assay: Stimulation of erythropoiesis in the MEBM model with erythropoietin. The conditions noted are these: Erythropoiesis-Specific Medium (EPO 1 ng/ml). As to the method:
Having confirmed the vascularization and HSC colonization of the micro-engineered niche, the potential to deploy the MEBM model to reconstitute multilineage hematopoiesis was investigated. Considering that hematopoiesis in vivo relies on extrinsic cues to control the fate of HSCs, the hematopoietic investigation was conducted by the addition of soluble factors known to drive lineage differentiation. First, the MEBM model was treated with erythropoietin (EPO) (see “Erythropoiesis-Specific Medium” of Table 1) to stimulate erythropoiesis. […] Following this phenotypic organization, the MEBM model produced a substantial number of round, erythroid cells that were distinguishable by their red color and expression of transferrin receptor (i.e., CD71) and glycophorin A. The micro-engineered niche also supported the differentiation of HSCs into myeloid cells. Stimulation of the MEBM model with myelopoietic media (see Table 1) for 21 days produced a marrow construct densely packed with cells of myeloid lineages, most of which were situated proximate the vasculature. A significant number of the cells were terminally differentiated mature neutrophils as identified by their multisegmented nuclei, intracellular secretory granules, and surface marker expression (CD15+/CD66b+).

The test system is the same in assay [2]. The experiment in a line: Mobilization of blood cells from the MEBM model on vascular perfusion with IL-8 or AMD3100. The source says:
When hormones, cytokines, and other soluble signals produced by peripheral tissues reach the bone marrow, they can induce mature blood cells in the hematopoietic niche to transmigrate across the sinusoidal endothelium and enter the bloodstream. This regulated release of blood cells into circulation is termed mobilization, which represents a critical step in immunity and continuous cellular replenishment required for homeostasis of the hematopoietic system. Having validated the transcriptomic signatures of mature hematopoietic cells in the MEBM model and their capacity for physiologically relevant cell-cell signaling, the MEBM model was evaluated to determine whether it could reconstitute the complex process of mobilization in the integrated context of the vascularized hematopoietic niche. The study was specifically focused on investigating the ability of mature neutrophils differentiated from HSCs in the MEBM model to replicate rapid release of their in vivo counterparts from the bone marrow reserve during immune responses to inflammatory insults. To simulate this situation, the vasculature of the micro-engineered niche was perfused with culture media containing physiologically relevant concentrations of interleukin-8 (IL-8) during infection (5,000 μg/ml), a systemic inflammatory cytokine known to stimulate neutrophil release.
In control experiments without IL-8, the vast majority of mature neutrophils identified by their expression of CD66b were retained in the perivascular space. […] Intravascular translocation of these cells occurred rapidly, within one hour of treatment, consistent with the time scale over which neutrophils are mobilized from the native marrow in an inflammatory setting.
To capture the process of mobilization under the dynamic conditions of continuous vascular perfusion, a time-lapse imaging of neutrophils in the micro-engineered niche was performed at physiological flow rates (10 μl/min). In the IL-8-treated replicates, neutrophils were distributed in the perivascular region initially, but upon cytokine stimulation, a large fraction of these cells entered the neighboring blood vessels in less than 20 minutes. The intravasated cells were then quickly cleared from the observation area in the direction of flow. The cellular content of effluent collected from these devices was composed primarily of non-adherent cells characterized by multilobular nuclei and robust expression of CD66b, confirming the release of terminally differentiated mature neutrophils. During the same time period only a few neutrophils were mobilized in the control group.
The MEBM model was also responsive to AMD3100 (Plerixafor), a CXCR4 antagonist clinically used for mobilizing HSCs and other hematopoietic cells from the bone marrow for autologous transplantation.
Statistically analyses described above were performed as follows. Mobilization of neutrophils in response to IL-8 and AMD3100 was assessed by ordinary one-way ANOVA, with Dunnett correction employed for multiple comparisons. Marker expression (CD15 and CD66b) as compared between AMD3100- and IL-8-mobilized groups was tested by unpaired t-test. Cell populations following irradiation were compared using 2-way ANOVA with multiple comparisons testing adjusted by Dunnett correction. Mobilization following infection was compared between infected and non-infected groups by unpaired t-test. Quantities of neutrophils at inflow and outflow position were compared using Welch's t-test to account for unequal variances in the data. Comparisons between multiplexed Luminex cytokine assays were performed using multiple t-tests, corrected by the Holm-Sidak method.

The subject of the next assay is mobilized neutrophils. The experiment in a line: Boyden chamber migration assay: chemotaxis of mobilized neutrophils in a gradient of IL-8. The settings on record: over a period of an hour. As for the experimental part:
For further investigation, a Boyden chamber migration assay was conducted to measure chemotaxis of mobilized neutrophils in a gradient of IL-8 as a representative endpoint of their functional capacity. […] It was noted that the transmigrated cells in the lower chamber clumped together to form multicellular aggregates, reminiscent of neutrophil swarming in vivo that plays an important functional role in antimicrobial activities of neutrophils.

Where [3] appears, read: image cytometry of CD15 and CD66b staining, cells released by AMD3100.

Consider three molecules from patent publication US20250304892A1, “APPARATUS, SYSTEM, AND METHOD FOR FORMING A PERTURBABLE BONE MARROW MODEL WITHIN A THREE-DIMENSIONAL MICROPHYSIOLOGICAL SYSTEM” (The Trustees of the University of Pennsylvania, priority 2022, published 2025).

As to “EPO: soluble factor added to stimulate erythropoiesis”, the “effect of EPO addition on the micro-engineered niche” value in assay [1] was “formation of multicellular complexes”.

Turning to `c1cc(CN2CCCNCCNCCCNCC2)ccc1CN1CCCNCCNCCCNCC1` [AMD3100, Plerixafor, reference compound], the “rate of mobilization compared with the IL-8-treated model” value in assay [2] (AMD3100 25 μg/ml) was “lower than that in the IL-8-treated model”. In addition, in assay [2] (setting [3]), the “neutrophils among the released cells of myeloid lineage” value is given as 56% and the “released cells of myeloid lineage” value is recorded as “approximately 65%”. The “increase in the rate at which cells were released from the device” value in assay [2] (perfused with clinical dose 25 μg/ml, in comparison to untreated controls) was “more than fivefold”.

“IL-8: a systemic inflammatory cytokine known to stimulate neutrophil release”: in the assay with mobilized neutrophils, the “cells that moved across the membrane” value is given as approximately 80%. Also, in assay [2] (IL-8-induced mobilization, image cytometry), the “mature neutrophils in the population of released cells” value is on record as 76%. Further, in assay [2] (IL-8 infused through the vasculature (5,000 μg/ml), compared with control without IL-8), the “egress of CD66b+ cells from the stromal compartment into the vascular lumen” value is reported as “substantial egress of CD66b+ cells”. Moreover, in assay [2] (time-lapse imaging, continuous vascular perfusion at 10 μl/min, upon cytokine stimulation), the “time until a large fraction of neutrophils entered the neighboring blood vessels” value is reported as “less than 20 minutes”.
